Measurements: the NIST ThermoML archive (doi:10.1007/s10765-006-0095-5)

Assay: xn = mol fraction of the nth substance listed
Settings: 101 kPa, Liquid

CCN(CC)CC [triethylamine] + c1ccccc1
mass density [kg/m3]
Settings | x2 = 0 | x2 = 0.1145 | x2 = 0.2043 | x2 = 0.3005 | x2 = 0.4005 | x2 = 0.5023 | x2 = 0.6037 | x2 = 0.7035 | x2 = 0.8079 | x2 = 0.9069
278.15 K | – | 751.3 | 759.4 | 769.2 | 780.6 | 793.6 | 808.1 | 824.2 | 843.9 | 866.2
283.15 K | – | 747.4 | 755.5 | 765.4 | 776.9 | 790 | 804.6 | 821 | 841 | 863.5
288.15 K | – | 743.3 | 751.5 | 761.4 | 772.9 | 786 | 800.7 | 817.2 | 837.4 | 859.9
293.15 K | – | 738.4 | 746.8 | 756.7 | 768.2 | 781.4 | 796.1 | 812.7 | 833.1 | 855.6
298.15 K | 723.4 | 733.4 | 741.8 | 751.7 | 763.1 | 776.1 | 790.7 | 807.2 | 827.4 | 849.6
303.15 K | 717.9 | 728.2 | 737 | 747.1 | 758.7 | 772 | 786.8 | 803.6 | 824.2 | 846.8
308.15 K | 712.9 | 723.4 | 732.3 | 742.4 | 754 | 767.3 | 782.1 | 799 | 819.6 | 842.1
313.15 K | 708.3 | 718.9 | 727.9 | 738.1 | 749.7 | 762.9 | 777.8 | 794.7 | 815.4 | 837.8
318.15 K | 701.6 | 712.6 | 721.7 | 732.1 | 743.9 | 757.2 | 772.3 | – | – | –
